According to PubChem BioAssay AID1919000 (Molecular Pharmacology Branch, DTP, NCI, 2023):
pIC50: −log10 of the molar value. Several values for one entry are separate records, joined by “and”; a condition that tells them apart may be missing. Equal entries are not always repeated.

System: 653999-131-R-J2-PDC complex spheroids, growth % test/control
Assay: Anticancer human tumor 653999-131-R-J2-PDC patient-derived lung adenocarcinoma cell line growth inhibition [AhR]
Conditions: for viability, T/C: stronger effect = lower value
Source text: Multicellular complex tumor spheroid response to aryl hydrocarbon receptor antagonists in combination with a variety of drugs and investigational agents in selected tumor cell lines
The current study was undertaken to assess response to aryl hydrocarbon receptor antagonists in combination with standard-of-care drugs and investigational agents in solid tumor complex spheroid models. Complex spheroids include a stromal component modeled by human endothelial cells (HUVEC) and fibroblasts modeled by human mesenchymal stem cells (MSCs). The concentration ranges selected for each drug and investigational agent were based upon clinically achievable concentrations if the clinical Cmax of the agent was known.
Compounds. The drugs and investigational agents: BAY 2416964 (NSC825713), GNF351 (NSC835774), CH-223191 (NSC835775), CPI-455 (NSC825282), aza-TdCyd (NSC777586), decitabine (NSC127716), belinostat (NSC758774), entinostat (NSC756642), pevonedistat (NSC761192), tazemetostat (NSC777109), talazoparib (NSC765396), olaparib (NSC753686), selinexor (NSC780203), nedisertib (M3814, NSC802822), bortezomib (NSC756655), venetoclax (NSC766270), doxorubicin (NSC123127), elimusertib (BAY189344, NSC800525), ceralasertib (AZD6738, NSC777638), TAK-243 (NSC785004), alisertib (NSC759677), etoposide (NSC141540), topotecan (NSC609699), eribulin (NSC707389), gemcitabine (NSC613327), carboplatin (NSC241240), cisplatin (NSC119875), and SN-38 (NSC673596) were obtained from the National Cancer Institute (NCI) Developmental Therapeutics Program Chemical Repository (32). The FDA-approved anticancer drug set is available from the Developmental Therapeutics Program at https://dtp.cancer.gov/organization/dscb/obtaining/available plates.htm. […] The stock solutions were prepared in dimethyl sulfoxide (DMSO, Sigma-Aldrich, St. Louis, MO, cat. D2650), except for the platinum compounds which were prepared in saline (Quality Biological, Gaithersburg, MD, cat. 114-055-101), at 800-fold the tested concentration and stored at -70 degrees C prior to their use. All drugs and investigational agents were tested over a range starting from a high concentration at or near the clinical Cmax and decreasing in half-log increments. If the clinical Cmax for an agent had not been determined, the highest concentration tested was 10 microM (Table 1).
Cell Culture. All cells were maintained in an incubator at 37 degrees C and 5% CO2 with 95% humidity. The PDC lines were cultured according to standard operating procedures established by the NCI PDMR (https://pdmr.cancer.gov). Briefly, all PDCs were thawed and cultured in Matrigel-coated flasks prepared with a working solution of 1X Ham's F-12 nutrient mix, without supplementation (Invitrogen, Waltham, MA, cat. 11765054), 100 U/mL penicillin-streptomycin (Invitrogen, cat. 15140122), and 2.5% Matrigel (Corning Inc., Corning, NY, cat. 354248) for the first three passages. All PDCs were cultured in complete DMEM/F-12 media containing advanced DMEM/F-12 (Invitrogen, cat. 12634028), 4.9% defined fetal bovine serum, heat inactivated (HyClone Laboratories Inc., Logan, UT, cat. SH30070.03HI), 389 ng/mL hydrocortisone (Sigma-Aldrich, cat. H4001), 9.7 ng/mL human EGF recombinant protein (Invitrogen, cat. PHG0313), 23.4 microg/mL adenine (Sigma-Aldrich, cat. A2786), 97.3 U/mL penicillin-streptomycin (Invitrogen, cat. 15140122), 1.9 mM L-glutamine (Invitrogen, cat. 25030081), and 9.7 microM Y-27632 dihydrochloride (Tocris Bioscience, Bristol, United Kingdom, cat. 1254). The PDCs were cultured in complete DMEM/F12 media without 10 microM Y-27632 dihydrochloride for at least two passages prior to the screen. The established cell lines NCI-H1341 and […] were cultured in DMEM/F-12, HEPES (Invitrogen, cat. 11330032), 5% defined fetal bovine serum (HyClone Laboratories Inc., cat. SH30070.03), ITS premix universal culture supplement [insulin (5 microg/mL), transferrin (5 microg/mL), and selenious acid (5 ng/mL)] […]
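Note: spheroids exposed to agents for seven days.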

CCN(c1cc(-c2ccc(CN3CCOCC3)cc2)cc(C(=O)NCc2c(C)cc(C)[nH]c2=O)c1C)C1CCOCC1 + Cc1cncc(-c2nc(NCCc3c[nH]c4ccccc34)c3ncn(C(C)C)c3n2)c1
pIC50 (curve of first compound, second compound 0.1 µM): < 5.52 | pIC50 (curve of first compound, second compound 0.316 µM): < 5.52 | pIC50 (curve of first compound, second compound 1 µM): < 5.52 | pIC50 (curve of first compound, second compound 3.16 µM): < 5.52 | pIC50 (curve of first compound, second compound 10 µM): 6.78 | viability, T/C (second compound 0.1 µM, first compound 0.00949 µM): 96.7% | viability, T/C (second compound 0.1 µM, first compound 0.03 µM): 105% | viability, T/C (second compound 0.1 µM, first compound 0.0949 µM): 104% | viability, T/C (second compound 0.1 µM, first compound 0.3 µM): 94.6% | viability, T/C (second compound 0.1 µM, first compound 0.949 µM): 97.9% | viability, T/C (second compound 0.1 µM, first compound 3 µM): 102% | viability, T/C (second compound 0.316 µM, first compound 0.00949 µM): 121% | viability, T/C (second compound 0.316 µM, first compound 0.03 µM): 122% | viability, T/C (second compound 0.316 µM, first compound 0.0949 µM): 106% | viability, T/C (second compound 0.316 µM, first compound 0.3 µM): 99.8% | viability, T/C (second compound 0.316 µM, first compound 0.949 µM): 104% | viability, T/C (second compound 0.316 µM, first compound 3 µM): 103% | viability, T/C (second compound 1 µM, first compound 0.00949 µM): 99.7% | viability, T/C (second compound 1 µM, first compound 0.03 µM): 116% | viability, T/C (second compound 1 µM, first compound 0.0949 µM): 108% | viability, T/C (second compound 1 µM, first compound 0.3 µM): 114% | viability, T/C (second compound 1 µM, first compound 0.949 µM): 104% | viability, T/C (second compound 1 µM, first compound 3 µM): 100% | viability, T/C (second compound 3.16 µM, first compound 0.00949 µM): 105% | viability, T/C (second compound 3.16 µM, first compound 0.03 µM): 116% | viability, T/C (second compound 3.16 µM, first compound 0.0949 µM): 104% | viability, T/C (second compound 3.16 µM, first compound 0.3 µM): 96.2% | viability, T/C (second compound 3.16 µM, first compound 0.949 µM): 98.8% | viability, T/C (second compound 3.16 µM, first compound 3 µM): 113% | viability, T/C (second compound 10 µM, first compound 0.00949 µM): 62% | viability, T/C (second compound 10 µM, first compound 0.03 µM): 53.3% | viability, T/C (second compound 10 µM, first compound 0.0949 µM): 51.6% | viability, T/C (second compound 10 µM, first compound 0.3 µM): 50.6% | viability, T/C (second compound 10 µM, first compound 0.949 µM): 37.8% | viability, T/C (second compound 10 µM, first compound 3 µM): 28.6%

Nc1ncn(C2CC(O)C(CO)S2)c(=O)n1 (configuration not stated)
viability, T/C (compound 0.000949 µM): 101% and 99.4% and 103% | viability, T/C (compound 0.003 µM): 96.3% and 106% and 112% | viability, T/C (compound 0.00949 µM): 98.4% and 110% and 100% | viability, T/C (compound 0.03 µM): 94.8% and 91% and 102% | viability, T/C (compound 0.0949 µM): 94.3% and 101% and 104% | viability, T/C (compound 0.3 µM): 86.8% and 100% and 89% | pIC50 (curve of compound): < 6.52
